Measured values as given in the OligoGym collection.
After the bases stand the sugars from the 5' end (letter, count) and the backbone: PS all phosphorothioate, else s phosphorothioate and o phosphodiester by linkage. Methylation of C is not given here. e = 2'-O-(2-methoxyethyl) (MOE); k = constrained ethyl (cEt); d = 2'-deoxy (DNA); m = 2'-O-methyl

Target: HSD17B13
Conditions: ASO, HepaRG

Sequence | target mRNA inhibition (1 µM) [%] | other results
GTTACCAGAGCATTCA (sugars k3 d10 k3, PS) | 73 | target mRNA inhibition (0.02 µM): 19%; target mRNA inhibition (0.078 µM): 36%; target mRNA inhibition (0.313 µM): 63%; target mRNA inhibition (1.25 µM): 74%; target mRNA inhibition (5 µM): 92%
ATATTCTGTGGCATGG (sugars kkdddddddddkekek, PS) | 43 | 
GAAGTTTTTAAGAGGC (sugars k3 d10 k3, PS) | 64 | 
GAACAATATGGGATGA (sugars k3 d9 k3 e1, PS) | 52 | 
CTAAGTTAGCCCCCAG (sugars k3 d10 k3, PS) | 15 | 
CTTCATCCTTGGTGCT (sugars k3 d10 k3, PS) | 30 | 
ATTTTTGGTGAACCCA (sugars k3 d10 k3, PS) | 8 | 
AAGTTAGTATAGTTAT (sugars k3 d10 k3, PS) | 20 | 
TGAAGATTAGTTAACC (sugars k3 d10 k3, PS) | 21 | 
TTTCTTATGTAATAGC (sugars k3 d9 k3 e1, PS) | 60 | 
CTATAGTAATTGCTAT (sugars k3 d10 k3, PS) | 0 | 
CAGCTATAGGTAGCTA (sugars k3 d10 k3, PS) | 0 | 
ATTAATCATGGGACAG (sugars k3 d10 k3, PS) | 20 | 
ACAGACTGTTGAGCTC (sugars k3 d10 k3, PS) | 53 | 
AGTCCATGCAAAAGCA (sugars k3 d9 k3 e1, PS) | 80 | target mRNA inhibition (0.02 µM): 1%; target mRNA inhibition (0.078 µM): 15%; target mRNA inhibition (0.313 µM): 43%; target mRNA inhibition (1.25 µM): 74%; target mRNA inhibition (5 µM): 85%
CCAGTAAAAAATTGGT (sugars k3 d10 k3, PS) | 23 | 
TTGCAGAAATTCACCT (sugars k3 d10 k3, PS) | 36 | 
CATAACCATAGGACAT (sugars k3 d10 k3, PS) | 41 | 
AGAAATTCACCTTGAC (sugars k3 d10 k3, PS) | 39 | 
TATAGACTGGGTAGGA (sugars kkdddddddddkekek, PS) | 38 | 
CAGGTTGAGATAAAGC (sugars k3 d10 k3, PS) | 49 | 
TTAGTTAGAATAGTCT (sugars k3 d10 k3, PS) | 8 | 
GAGATTTGAAGGTTAG (sugars k3 d10 k3, PS) | 82 | target mRNA inhibition (0.02 µM): 0%; target mRNA inhibition (0.078 µM): 26%; target mRNA inhibition (0.313 µM): 54%; target mRNA inhibition (1.25 µM): 77%; target mRNA inhibition (5 µM): 92%

Sequence | target mRNA inhibition (1 µM) [%] | other results
CCCAACGCAACAGTTT (sugars k3 d10 k3, PS) | 66 | target mRNA inhibition (0.02 µM): 4%; target mRNA inhibition (0.078 µM): 26%; target mRNA inhibition (0.313 µM): 54%; target mRNA inhibition (1.25 µM): 78%; target mRNA inhibition (5 µM): 92%
ACAAUATGGGATGAGG (sugars k3 d1 m1 d8 k3, PS) | 70 | target mRNA inhibition (0.02 µM): 0%; target mRNA inhibition (0.078 µM): 2%; target mRNA inhibition (0.313 µM): 0%; target mRNA inhibition (1.25 µM): 48%; target mRNA inhibition (5 µM): 59%
AGGAAATATAGAGGGT (sugars k3 d10 k3, PS) | 54 | 
AGTAGAGAGCATAAGT (sugars k3 d10 k3, PS) | 52 | 
GGCTACAGATTGGAAT (sugars kkdddddddddkekek, PS) | 73 | target mRNA inhibition (0.02 µM): 16%; target mRNA inhibition (0.078 µM): 0%; target mRNA inhibition (0.313 µM): 27%; target mRNA inhibition (1.25 µM): 62%; target mRNA inhibition (5 µM): 83%
GCTCTAATGTTTCTTG (sugars k3 d10 k3, PS) | 62 | 
TCTTATCCACACCTTC (sugars k3 d10 k3, PS) | 31 | 
AACATCTCTGGGACCA (sugars k3 d10 k3, PS) | 74 | target mRNA inhibition (0.02 µM): 0%; target mRNA inhibition (0.078 µM): 11%; target mRNA inhibition (0.313 µM): 44%; target mRNA inhibition (1.25 µM): 64%; target mRNA inhibition (5 µM): 81%
ATGTGAAGAGCTGGTA (sugars kkkddkddddddkkke, PS) | 56 | 
GAGTCGGTCACCTTTC (sugars kkdddddddddkekek, PS) | 62 | 
CTGGTTTCATAACCTA (sugars k3 d10 k3, PS) | 9 | 
GAATTTTTGAGGTTGG (sugars k3 d10 k3, PS) | 77 | target mRNA inhibition (0.02 µM): 17%; target mRNA inhibition (0.078 µM): 26%; target mRNA inhibition (0.313 µM): 62%; target mRNA inhibition (1.25 µM): 92%; target mRNA inhibition (5 µM): 91%
ATGAGGTTTTGATACC (sugars k3 d10 k3, PS) | 47 | 
ATGAGGTTTTGATACC (sugars k3 d1 m1 d8 k3, PS) | 49 | 
AGCATTGATTCGAAAC (sugars k3 d10 k3, PS) | 70 | 
TATTCCAGGATTTGCT (sugars k3 d10 k3, PS) | 43 | 
GTGCCAAACCAATGTT (sugars k3 d1 m1 d8 k3, PS) | 30 | 
AGTTTAGAAGTCAAAC (sugars k3 d10 k3, PS) | 23 | 
GGAATGCTACTTGAAC (sugars kkdddddddddkekek, PS) | 49 | 
AACAATCTCCCCAGCC (sugars k3 d10 k3, PS) | 59 | 
TCTTCACCTGATTTAG (sugars k3 d10 k3, PS) | 24 | 
GAACACTTTCACTGGG (sugars k3 d10 k3, PS) | 0 | 
GGGAATGCTCATATTA (sugars k3 d10 k3, PS) | 18 | 

Sequence | target mRNA inhibition (1 µM) [%] | other results
CTTCATAGTGGACTTC (sugars k3 d10 k3, PS) | 79 | target mRNA inhibition (0.02 µM): 3%; target mRNA inhibition (0.078 µM): 4%; target mRNA inhibition (0.313 µM): 28%; target mRNA inhibition (1.25 µM): 66%; target mRNA inhibition (5 µM): 93%
TGATACACCAATGCAG (sugars k3 d9 k3 e1, PS) | 58 | 
GAATTCACTATCTCCC (sugars k3 d10 k3, PS) | 38 | 
TTTACTCACTTCTGGT (sugars k3 d10 k3, PS) | 30 | 
GTATTTGAGATTCACC (sugars k3 d10 k3, PS) | 41 | 
GCTAGTGCCAAACCAA (sugars k3 d9 k3 e1, PS) | 70 | 
AACCTTGAATGAGTGG (sugars k3 d10 k3, PS) | 50 | 
CTTAAACCTTCCCTGT (sugars kkdddddddddkekek, PS) | 36 | 
TATTGTAGGGATTGAA (sugars k3 d10 k3, PS) | 40 | 
TTAATGCCACCCTACC (sugars kkdddddddddkekek, PS) | 11 | 
GATCTTAAGGATCATT (sugars k3 d10 k3, PS) | 0 | 
CTCTCTAAAGGGCTGC (sugars k3 d10 k3, PS) | 55 | 
AAAAGGTTATCATGGG (sugars k3 d10 k3, PS) | 49 | 
ATAGAGTCGGTCACCT (sugars k3 d10 k3, PS) | 60 | 
ATATTATCAGGACTGA (sugars k3 d10 k3, PS) | 47 | 
GTTTATCATGTGCCAC (sugars k3 d10 k3, PS) | 83 | target mRNA inhibition (0.02 µM): 0%; target mRNA inhibition (0.078 µM): 21%; target mRNA inhibition (0.313 µM): 44%; target mRNA inhibition (1.25 µM): 76%; target mRNA inhibition (5 µM): 94%
TCCCAACCAAACTTCC (sugars k3 d9 k3 e1, PS) | 24 | 
AAATTAGAGGCCCAGG (sugars k3 d10 k3, PS) | 43 | 
ATATGTGAAGAGCTGG (sugars k3 d10 k3, PS) | 51 | 
AAACAAGAGGATAGTC (sugars k3 d1 m1 d8 k3, PS) | 53 | 
AAGTTAGCCCCCAGGA (sugars kkdddddddddkekek, PS) | 12 | 
TCTACATGGATCCAAC (sugars k3 d10 k3, PS) | 26 | 
TGCAGCATTGATTCGA (sugars kkdddddddddkekek, PS) | 42 | 

Sequence | target mRNA inhibition (1 µM) [%] | other results
GTTGACTAATGCAAGA (sugars k3 d10 k3, PS) | 59 | 
CCATTATCCTTACTCC (sugars k3 d10 k3, PS) | 27 | 
GACATAACTTCATAGT (sugars k3 d10 k3, PS) | 39 | 
GGAAAGGATATTTGGC (sugars k3 d10 k3, PS) | 58 | 
CTAGAATTAAGGGCTA (sugars k3 d10 k3, PS) | 42 | 
AGAGTTGCACCGTTTT (sugars k3 d10 k3, PS) | 76 | target mRNA inhibition (0.02 µM): 5%; target mRNA inhibition (0.078 µM): 11%; target mRNA inhibition (0.313 µM): 40%; target mRNA inhibition (1.25 µM): 81%; target mRNA inhibition (5 µM): 87%
TGATTAAGCAGAATTG (sugars k3 d10 k3, PS) | 57 | 
TGATTAATCTTGATGC (sugars k3 d10 k3, PS) | 15 | 
CTTTCATAGGGAGACC (sugars k3 d10 k3, PS) | 73 | target mRNA inhibition (0.02 µM): 20%; target mRNA inhibition (0.078 µM): 2%; target mRNA inhibition (0.313 µM): 54%; target mRNA inhibition (1.25 µM): 75%; target mRNA inhibition (5 µM): 86%
GCTACTTGAACAGTCT (sugars kkdddddddddkekek, PS) | 64 | 
ATTAAGCATTGTTAGC (sugars k3 d10 k3, PS) | 0 | 
CTTAGTTCATTGTGAT (sugars k3 d10 k3, PS) | 69 | 
GATGTAGTGGGAGTCG (sugars k3 d9 k3 e1, PS) | 42 | 
AATACAGGCCATAATC (sugars k3 d10 k3, PS) | 16 | 
TGAGATAAAGCTGCCT (sugars k3 d10 k3, PS) | 63 | 
ATGTAATAGCCAGTAC (sugars k3 d1 m1 d8 k3, PS) | 42 | 
TGAACAGTCTTAAACC (sugars kkdddddddddkekek, PS) | 34 | 
GTTTCTTATGTAATAG (sugars k3 d1 m1 d8 k3, PS) | 25 | 
GATTAAGCAGAATTGT (sugars k3 d1 m1 d8 k3, PS) | 28 | 
GCATCAAGACATTCTA (sugars kkdddddddddkekek, PS) | 43 | 
